Assay results taken from patent publication US20240245668A1, “AGENT FOR TREATING OR PREVENTING GLAUCOMA INCLUDING A SULFONAMIDE COMPOUND AND ANOTHER DRUG” (SANTEN PHARMACEUTICAL CO., LTD., priority 2012, published 2024).

What was measured:
[1] = test system: monkeys with normal intraocular pressure; assay: Intraocular pressure lowering effect, present compound and brimonidine concomitantly administered to monkeys; type: in vivo, Cynomolgus monkey; conditions: male cynomolgus monkeys, instillation into one eye, 0.0006 w/v % present compound solution 20 μL, ALPHAGAN P (0.15%) 20 μL
Excerpt: In order to study the usefulness of a combination of the present compound with an α2-receptor agonist, an intraocular pressure lowering effect when the present compound and brimonidine were concomitantly administered to experimental animals (monkeys with normal intraocular pressure) was examined.
(§1) An intraocular pressure lowering effect when the present compound and brimonidine were concomitantly administered was examined. As comparison subjects, intraocular pressure lowering effects when the present compound or brimonidine was administered singly were also examined. As a control, the base and physiological saline were administered.
(§2) Present compound solution: a 0.0006 w/v % present compound solution (instillation amount: 20 μL) […]
(§3) • (1) One drop of a 0.4% oxybuprocaine hydrochloride eye drop (trade name: Benoxil (registered trademark) eye drop (0.4%)) was instilled into both eyes of each experimental animal to effect local anesthesia. • (2) Intraocular pressure was measured immediately before administering the test compound solution, and the measured intraocular pressure was defined as initial intraocular pressure. • (3) The present compound solution was instilled into one eye of each experimental animal (the other eye was not treated). […] The intraocular pressure was measured in triplicate for each eye to obtain an average of three measurements, which is shown as the result. […]

[2] = test system: monkeys with normal intraocular pressure; assay: Intraocular pressure lowering effect, present compound and latanoprost concomitantly administered to monkeys; type: in vivo, Cynomolgus monkey; conditions: male cynomolgus monkeys, instillation into one eye, 0.0006 w/v % present compound solution 20 μL, Xalatan eye drop (0.005%) 20 μL
Excerpt: (§4) In order to study the usefulness of a combination of the present compound with a prostaglandin, an intraocular pressure lowering effect when the present compound and latanoprost were concomitantly administered to experimental animals (monkeys with normal intraocular pressure) was examined.
as §1, with “latanoprost” for “brimonidine”
as §2
as §3, with “The intraocular measured in” for “The intraocular pressure was measured in”

[3] = test system: rabbits with normal intraocular pressure; assay: Intraocular pressure lowering effect, present compound and timolol concomitantly administered to rabbits; type: in vivo, Japanese white rabbit; conditions: male JW rabbits, instillation into one eye, 0.001 w/v % present compound solution 50 μL, Timoptol eye drop (0.5%) 50 μL
Excerpt: In order to study the usefulness of the combination of the present compound with a β-receptor antagonist, an intraocular pressure lowering effect when the present compound and timolol were concomitantly administered to experimental animals (rabbits with normal intraocular pressure) was examined.
as §1, with “timolol” for “brimonidine”
Present compound solution: a 0.001 w/v % present compound solution (instillation amount: 50 μL) […]
as §3

[4] = test system: monkeys with normal intraocular pressure; assay: Intraocular pressure lowering effect, present compound and brinzolamide concomitantly administered to monkeys; type: in vivo, Cynomolgus monkey; conditions: male cynomolgus monkeys, instillation into one eye, 0.0006 w/v % present compound solution 20 μL, Azopt Ophthalmic Suspension (1%) 20 μL
Excerpt: as §4, with “carbonic anhydrase inhibitor,” for “prostaglandin,”, “brinzolamide” for “latanoprost”
as §1, with “brinzolamide” for “brimonidine”
as §2, §3

SMILES	Intraocular pressure lowering degree (change relative to average of control group) at 2 hours after instillation [1] [mmHg]	Intraocular pressure lowering degree (change relative to average of control group) at 8 hours after instillation [2] [mmHg]	Intraocular pressure lowering degree (change relative to average of control group) at 4 hours after instillation [3] [mmHg]	Intraocular pressure lowering degree (change relative to average of control group) at 4 hours after instillation [4] [mmHg]
Brc1c(NC2=NCCN2)ccc2nccnc12 [Brimonidine, brimonidine]	1.8			
CC(C)OC(=O)CCC/C=C\C[C@@H]1[C@@H](CC[C@@H](O)CCc2ccccc2)[C@H](O)C[C@@H]1O [Latanoprost, latanoprost]		1.5		
CC(C)OC(=O)CNc1cccc(CN(Cc2ccc(-n3cccn3)cc2)S(=O)(=O)c2cccnc2)n1 [Present compound, isopropyl (6-{[4-(pyrazol-1-yl)benzyl](pyridin-3-ylsulfonyl)aminomethyl}pyridin-2-ylamino) acetate]	2.6	1.6	1.6	2.5
CC(C)(C)NC[C@H](O)COc1nsnc1N1CCOCC1 [Timolol, timolol]			2.3	
CCN[C@H]1CN(CCCOC)S(=O)(=O)c2sc(S(N)(=O)=O)cc21 [Brinzolamide, brinzolamide]				1.6
